From patent US20060263802A1 (priority 2003, published 2006)
“Also recorded” adds a separate entry of the source.

Assays:
Assay type in all cases: binding
[1] = tested on: human monoclonal antibody CRJB
[2] = tested on: human monoclonal antibody CR57
[3] = tested on: human monoclonal antibody CRJB; remark: listed apart in the source
[4] = tested on: human monoclonal antibody CRJA
[5] = tested on: human monoclonal antibody CRJA; remark: listed apart in the source
[6] = tested on: human monoclonal antibody CR57; remark: listed apart in the source

Row | Sequence | Binding of CRJB to linear peptide (PEPSCAN-ELISA signal) [1] | Binding of CR57 (10 μg/ml) to looped/cyclic peptide (PEPSCAN-ELISA signal) [2] | Binding of CRJB (10 μg/ml) to looped/cyclic peptide (PEPSCAN-ELISA signal) [3] | Binding of CRJA to linear peptide (PEPSCAN-ELISA signal) [4] | Binding of CRJA (10 μg/ml) to looped/cyclic peptide (PEPSCAN-ELISA signal) [5] | Binding of CR57 to linear peptide (PEPSCAN-ELISA signal) [6] | Binding of CR57 (10 μg/ml) to looped/cyclic peptide (PEPSCAN-ELISA) [2] | Binding of CRJB (10 μg/ml) to looped/cyclic peptide (PEPSCAN-ELISA) [3] | Binding of CRJA (10 μg/ml) to looped/cyclic peptide (PEPSCAN-ELISA) [5] | other results
1 | WMPENPRLGMSCDIF | 113 | 199 | 206 | 97 | 164 | 88 | – | – | – | binding of antibody CR57 to looped/cyclic peptide (PEPSCAN OD) [2]: clearly bound; binding of antibody CRJB to looped/cyclic peptide (PEPSCAN OD) [3]: display reactivity; also recorded: clearly bound
2 | SFRRLSHLRKLVPGF | 110 | – | – | 75 | – | 92 | 143 | 87 | 320 | binding of antibody CRJA to looped/cyclic peptide (PEPSCAN OD) [5]: clearly bound
3 | RLGMSCDIFTNSRGK | 106 | 105 | 104 | 92 | 110 | 88 | – | – | – | –
4 | RYEESLHNPYPDYRW | 112 | 98 | 71 | 96 | 91 | 69 | – | – | – | –
5 | GNVLIPEMQSSLLQQ | 120 | – | – | 85 | – | 96 | 99 | 103 | 78 | –
6 | LSCPNNLVVEDEGCT | 117 | 72 | 74 | 90 | 97 | 69 | – | – | – | –
7 | HLSCPNNLVVEDEGC | 119 | 76 | 64 | 76 | 92 | 65 | – | – | – | –
8 | HSRVFPSGKCSGVAV | 118 | 138 | 104 | 111 | 113 | 97 | – | – | – | –
9 | PLVHPLADPSTVFKD | 112 | – | – | 90 | – | 93 | 101 | 90 | 104 | –
10 | PYPDYRWLRTVKTTK | 93 | 88 | 92 | 84 | 76 | 65 | – | – | – | –
11 | DFRSDEIEHLVVEEL | 103 | – | – | 86 | – | 99 | 127 | 58 | 93 | –
12 | WCPPDQLVNLHDFRS | 119 | – | – | 114 | – | 101 | 105 | 106 | 111 | –
13 | ESLVIISPSVADLDP | 125 | 99 | 65 | 120 | 118 | 88 | – | – | – | –
14 | RVFPSGKCSGVAVSS | 110 | 75 | 89 | 58 | 43 | 69 | – | – | – | –
15 | LDKLGPWSPIDIHHL | 99 | 93 | 65 | 59 | 82 | 55 | – | – | – | –
16 | FVEVHLPDVHNQVSG | – | – | – | – | – | – | – | – | – | Binding of human monoclonal antibody CRJB to linear peptide (PEPSCAN-ELISA signal) [1]: 143; Binding of CR57 to looped/cyclic peptide (PEPSCAN-ELISA signal) [2]: 150; Binding of CRJB to looped/cyclic peptide (PEPSCAN-ELISA signal) [3]: 101; Binding of human monoclonal antibody CRJA to linear peptide (PEPSCAN-ELISA signal) [4]: 93; Binding of CRJA to looped/cyclic peptide (PEPSCAN-ELISA signal) [5]: 103; Binding of human monoclonal antibody CR57 to linear peptide (PEPSCAN-ELISA signal) [6]: 92
17 | GSETCGFVDERGLYK | 115 | – | – | 56 | – | 57 | 64 | 71 | 64 | –
18 | GFVDERGLYKSLKGA | 120 | – | – | 104 | – | 84 | 107 | 86 | 87 | –
19 | NYTNFVGYVTTTFKR | 114 | 58 | 88 | 97 | 85 | 49 | – | – | – | –
20 | HPLADPSTVFKDGDE | – | – | – | – | – | – | – | – | – | Binding of human monoclonal antibody CRJB to linear peptide (PEPSCAN-ELISA signal) [1]: 141; Binding of CR57 to looped/cyclic peptide (PEPSCAN-ELISA signal) [2]: 111; Binding of CRJB to looped/cyclic peptide (PEPSCAN-ELISA signal) [3]: 93; Binding of human monoclonal antibody CRJA to linear peptide (PEPSCAN-ELISA signal) [4]: 100; Binding of CRJA to looped/cyclic peptide (PEPSCAN-ELISA signal) [5]: 115; Binding of human monoclonal antibody CR57 to linear peptide (PEPSCAN-ELISA signal) [6]: 74
21 | LESIMTTKSVSFRRL | 114 | – | – | 94 | – | 48 | 94 | 78 | 91 | –
22 | NHDYTIWMPENPRLG | 119 | 170 | 186 | 108 | 123 | 71 | – | – | – | binding of antibody CRJB to looped/cyclic peptide (PEPSCAN OD) [3]: display reactivity; also recorded: clearly bound
23 | ILAIKMNGFTCTGVV | 103 | 77 | 72 | 87 | 45 | 79 | – | – | – | –
24 | TVKTTKESLVIISPS | 116 | 94 | 55 | 93 | 92 | 76 | – | – | – | –
25 | FPSGKCSGVAVSSTY | 134 | 90 | 74 | 93 | 80 | 64 | – | – | – | –
26 | DPSTVFKDGDEAEDF | – | – | – | – | – | – | – | – | – | Binding of human monoclonal antibody CRJB to linear peptide (PEPSCAN-ELISA signal) [1]: 147; Binding of CR57 to looped/cyclic peptide (PEPSCAN-ELISA signal) [2]: 134; Binding of CRJB to looped/cyclic peptide (PEPSCAN-ELISA signal) [3]: 110; Binding of human monoclonal antibody CRJA to linear peptide (PEPSCAN-ELISA signal) [4]: 132; Binding of CRJA to looped/cyclic peptide (PEPSCAN-ELISA signal) [5]: 110; Binding of human monoclonal antibody CR57 to linear peptide (PEPSCAN-ELISA signal) [6]: 98
27 | HYKSVRTWNEILPSK | 130 | – | – | 87 | – | 80 | 112 | 101 | 100 | –
28 | SIMTTKSVSFRRLSH | 130 | – | – | 92 | – | 54 | 69 | 25 | 72 | –
29 | PIYTILDKLGPWSPI | 89 | 58 | 77 | 143 | 78 | 36 | – | – | – | –
